Assay results from US9980943B2, “Methods of treating muscular dystrophy” (BOARD OF REGENTS OF THE NEVADA SYSTEM OF HIGHER EDUCATION, …, priority 2013, dated 2018).

Key:
Type in all cases: cell-based, mouse
[1] = tested on: α7 integrin (LacZ reporter in α7+/LacZ myotubes); assay: Myotube α7 integrin FDG assay (Burkin assay in myotubes, 96-well); settings: myotubes
[2] = tested on: β-galactosidase in CMV-LacZ C2C12 myoblasts; assay: CMV-LacZ secondary screen in C2C12 myoblasts (β-Gal stabilizing assay); settings: CMV-LacZ C2C12 myoblasts
Summary of the method: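 β-Gal level was the read-out, measured in a clonal C2C12 line expressing LacZ from a CMV promoter. Dose-response curves used six concentrations, 0.5 μM up to 40 μM, with duplicate points.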

[3] = tested on: α7 integrin (LacZ reporter in α7βgal+/− myoblasts); assay: Myoblast α7+/LacZ integrin FDG assay (Burkin assay in myoblasts, 96-well); settings: α7+/LacZ myoblasts, 96-well
[4] = tested on: β-galactosidase in CMV-LacZ C2C12 myotubes; assay: CMV-LacZ secondary screen in C2C12 myotubes (β-Gal stabilizing assay); settings: C2C12 CMV-LacZ myotubes, fold relative to DMSO
Summary of the method: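 First, C2C12 myoblasts were transfected with a linearized CMV-LACZ vector and clonal lines selected by FDG β-gal assay. Then cells were exposed to compounds at 0.5, 1, 5, 10, 20 and 40 μM in 96-well format, two replicates each, and β-gal measured.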

Row | SMILES | Burkin Assay in Myotubes, α7 integrin LacZ reporter signal relative to DMSO ([1]; 0.5 uM) | Burkin Assay in Myotubes, α7 integrin LacZ reporter signal relative to DMSO ([1]; 1 uM) | Burkin Assay in Myotubes, α7 integrin LacZ reporter signal relative to DMSO ([1]; 5 uM) | Burkin Assay in Myotubes, α7 integrin LacZ reporter signal relative to DMSO ([1]; 10 uM) | Burkin Assay in Myotubes, α7 integrin LacZ reporter signal relative to DMSO ([1]; 20 uM) | Burkin Assay in Myotubes, α7 integrin LacZ reporter signal relative to DMSO ([1]; 40 uM) | CMV-LACZ in Myoblasts (β-galactosidase activity relative to DMSO) ([2]; 0.5 uM) | CMV-LACZ in Myoblasts (β-galactosidase activity relative to DMSO) ([2]; 1 uM) | CMV-LACZ in Myoblasts (β-galactosidase activity relative to DMSO) ([2]; 5 uM) | CMV-LACZ in Myoblasts (β-galactosidase activity relative to DMSO) ([2]; 10 uM) | CMV-LACZ in Myoblasts (β-galactosidase activity relative to DMSO) ([2]; 20 uM) | CMV-LACZ in Myoblasts (β-galactosidase activity relative to DMSO) ([2]; 40 uM) | Burkin Assay in Myoblasts, signal relative to DMSO ([3]; 0.5 uM) | Burkin Assay in Myoblasts, signal relative to DMSO ([3]; 1 uM) | Burkin Assay in Myoblasts, signal relative to DMSO ([3]; 5 uM) | Burkin Assay in Myoblasts, signal relative to DMSO ([3]; 10 uM) | Burkin Assay in Myoblasts, signal relative to DMSO ([3]; 20 uM) | Burkin Assay in Myoblasts, signal relative to DMSO ([3]; 40 uM) | CMV-LACZ in Myotubes, signal relative to DMSO ([4]; 0.5 uM) | CMV-LACZ in Myotubes, signal relative to DMSO ([4]; 1 uM) | other results
1 | CCCN(C(=O)c1ccc(S(=O)(=O)N2CCCC2)cc1)C1CCS(=O)(=O)C1 (stereo not drawn) [MLS002161853-01] | 0.8761 | 0.8092 | 0.9889 | 1.16 | 0.919 | 0.9353 | 1.0131 | 0.8734 | 0.8819 | 0.9436 | 1.0922 | 0.9348 | 0.8569 | 0.8278 | 0.9386 | 1.1978 | 1.073 | 0.9354 | 1.0524 | 0.8352 | CMV-LACZ in Myotubes, signal relative to DMSO ([4]; 5 uM): 1.1122; CMV-LACZ in Myotubes, signal relative to DMSO ([4]; 10 uM): 0.9103; CMV-LACZ in Myotubes, signal relative to DMSO ([4]; 20 uM): 1.2341; CMV-LACZ in Myotubes, signal relative to DMSO ([4]; 40 uM): 1.0647
2 | CN1C(=O)N(CC(=O)N2CCN(S(=O)(=O)c3ccc(Cl)s3)CC2)C(=O)C12CCCCC2 [MLS002162890-01] | 1.051 | 1.185 | 0.9351 | 1.1501 | 0.7452 | 0.803 | 0.8392 | 0.8713 | 0.9701 | 0.9939 | 0.7603 | 0.9507 | 1.107 | 1.034 | 1.1338 | 1.261 | 0.694 | 0.4924 | 1.0682 | 1.0191 | CMV-LACZ in Myotubes, signal relative to DMSO ([4]; 5 uM): 1.1237; CMV-LACZ in Myotubes, signal relative to DMSO ([4]; 10 uM): 1.0530; CMV-LACZ in Myotubes, signal relative to DMSO ([4]; 20 uM): 1.0140; CMV-LACZ in Myotubes, signal relative to DMSO ([4]; 40 uM): 1.0170
3 | CCN(CC(=O)NCc1cccs1)C(=O)COc1ccc(C(N)=O)cc1 [MLS002163101-01] | 1.045 | 0.9075 | 1.101 | 1.302 | 0.7782 | 0.9761 | 0.9991 | 1.0317 | 1.0262 | 1.0313 | 0.9644 | 1.1556 | 0.9552 | 0.9442 | 0.9699 | 1.251 | 0.9457 | 0.9775 | 1.0533 | 1.1400 | CMV-LACZ in Myotubes, signal relative to DMSO ([4]; 5 uM): 0.8302; CMV-LACZ in Myotubes, signal relative to DMSO ([4]; 10 uM): 0.8407; CMV-LACZ in Myotubes, signal relative to DMSO ([4]; 20 uM): 0.9212; CMV-LACZ in Myotubes, signal relative to DMSO ([4]; 40 uM): 1.5447
4 | CC(C)CN(C(=O)c1cccc(Cl)c1)c1c(N)n(Cc2ccccc2)c(=O)[nH]c1=O [MLS002163670-01] | 1.223 | 1.294 | 0.9778 | 1.072 | 0.8526 | 0.735 | 1.1806 | 0.8738 | 0.8671 | 0.9725 | 0.8611 | 1.4715 | 1.117 | 1.234 | 1.012 | 0.9468 | 0.8972 | 0.7779 | 0.9237 | 1.2044 | CMV-LACZ in Myotubes, signal relative to DMSO ([4]; 5 uM): 0.9788; CMV-LACZ in Myotubes, signal relative to DMSO ([4]; 10 uM): 0.8898; CMV-LACZ in Myotubes, signal relative to DMSO ([4]; 20 uM): 1.1659; CMV-LACZ in Myotubes, signal relative to DMSO ([4]; 40 uM): 1.1235
5 | COc1ccccc1CC(=O)Nc1cc(S(=O)(=O)N2CCOCC2)ccc1N1CCOCC1 [MLS002170630-01] | 1.03 | 1.075 | 0.9697 | 1.123 | 0.8857 | 1.0714 | 0.9954 | 0.8054 | 0.9890 | 0.9628 | 0.8233 | 0.7387 | 1.122 | 0.9708 | 1.0982 | 1.216 | 0.7825 | 0.6735 | 0.8136 | 1.0036 | CMV-LACZ in Myotubes, signal relative to DMSO ([4]; 5 uM): 1.2068; CMV-LACZ in Myotubes, signal relative to DMSO ([4]; 10 uM): 0.9248; CMV-LACZ in Myotubes, signal relative to DMSO ([4]; 20 uM): 0.9710; CMV-LACZ in Myotubes, signal relative to DMSO ([4]; 40 uM): 0.8580
